Measured values: patent US20080293931A1, “Methods and compositions for the removal of nucleic acid amplification inhibitors” (priority 2006, published 2008)
Entries after “also recorded” stand apart in the source; their conditions may differ. Where two headings read alike, the source gives them in different places.

Assays:
[1] = Humic acid (HA) removal from aqueous commercial HA solutions by PIR compounds, fluorimetric HA determination; design: key to ε values: ε = −log(1 − efficiency); efficiency = ([HA]i − [HA]f)/[HA]i; conditions: for performance as PIR compound (in words): commercial humic acid solutions; for Average Efficiency, ε / Avg Reduction Factor: aqueous humic samples seeded with E. coli DNA
Protocol: Humic solutions were in 1×TAE buffer at RT with pH˜7. […] Samples from PIR experiments utilizing these materials were diluted, using 1×TAE, to concentrations falling within the linear response region representative of the humic material used.
In this study, when samples were interrogated for humic acid concentrations via fluorimetry, known concentrations of commercial humic acids were compared to known concentrations of humic standards.
FIG. 1 compares the HA removal from samples containing DNA of interest to the molar concentration of varied PIR compounds by plotting an HA reduction factor as the initial [HA] divided by [HA] following treatment with PIR compounds. The commercially available PIR kit, from Mo-BIO, is placed on FIG. 1 for comparison and was arbitrarily assigned a molar concentration of 1 for convenience. […] The data shown in FIG. 1 were generated from varied initial [HA], ranging from ˜5,000 to 300,000 mg/L HA. These varied initial [HA] values represent a “worst case” scenario and these are in comparison to initial [HA] in extractions from problematic soils generating humic acid concentrations typically less than 5,000 mg/L.
FIG. 2 plots the data from the same experiments represented in FIG. 1, but applying a different approach for data metric. FIG. 2 plots a dimensionless HA removal efficiency (or efficacy) value versus the decade of dilution necessary for successful PCR. The efficiency of HA removal is defined in equation 1 as the initial [HA] minus the final [HA] divided by the initial [HA]. This is essentially a percent removal approach.
Efficiency=[HA]i−[HA]f/[HA]; (1)
To further discriminate efficiency values greater than 0.99, the efficiency was subtracted from the integer value of 1, and the −log was taken of 1-efficiency to generate a non-negative value indicative of HA removal efficiency with greater level of discrimination and resolution of values with high degrees of HA removal. This is described by equation 2.

[2] = test system: E. coli DNA; assay: PCR of seeded E. coli DNA after PIR treatment of aqueous HA samples (decade of dilution necessary for successful PCR); conditions: for Typical dilution decade for PCR / range of dilutions (dilution decade for PCR): aqueous humic samples seeded with E. coli DNA
Protocol: Consideration of dilution factors for successful PCR must also be reviewed. In untreated soil extracts containing DNA of interest, successful PCR of the extracted DNA may occur when the polymerase inhibitor is diluted sufficiently such that inhibition is suppressed and PCR may occur. Typical values for the dilution decade at which PCR is successful in samples containing humic materials and DNA of interest are often around decade four (1×10^4). Accordingly, a dilution factor of 10,000 would be necessary for successful PCR in a typical soil extract/sample. This magnitude of dilution may also impact PCR sensitivity for DNA/species already present at low concentrations and result in not identifying an organism that was present in the original sample extract.
Using this approach for presenting the HA removal data allows for the determination of a PIR compound's effectiveness for HA removal (ε) and compatibility for application in PCR systems via dilution data for PCR.

[3] = Solubility of PIR compounds in aqueous solution; format: physicochemical; conditions: for solubility: aqueous solution
[4] = PIR 1 M, HAi avg 6,500-12,300 depending on compound (Table 6 c2)
[5] = 4.0 M AMG in phosphate buffer, 30 days storage, 4 C., dark, HA avg ~10,000 mg/L
[6] = 4.0 M AMG in phosphate buffer, 30 days storage, 25 C., dark, HA avg ~10,000 mg/L
[7] = 4.0 M AMG in phosphate buffer, 30 days storage, 25 C., light, HA avg ~10,000 mg/L
[8] = 4.0 M AMG in phosphate buffer, 30 days storage, −20 C., dark, HA avg ~10,000 mg/L
[9] = 5.5 M AMG in phosphate buffer, 30 days storage, 4 C., dark, HA avg ~10,000 mg/L
[10] = 5.5 M AMG in phosphate buffer, 30 days storage, 25 C., dark, HA avg ~10,000 mg/L
[11] = 5.5 M AMG in phosphate buffer, 30 days storage, 25 C., light, HA avg ~10,000 mg/L
[12] = 5.5 M AMG in phosphate buffer, 30 days storage, −20 C., dark, HA avg ~10,000 mg/L
[13] = 0.1M DTPB in phosphate buffer, 30 days storage, 4 C., dark, HA avg 50,300 mg/L
[14] = 0.1M DTPB in phosphate buffer, 30 days storage, 25 C., dark, HA avg 50,300 mg/L
[15] = 0.1M DTPB in phosphate buffer, 30 days storage, 25 C., light, HA avg 50,300 mg/L
[16] = 0.1M DTPB in phosphate buffer, 30 days storage, −20 C., dark, HA avg 50,300 mg/L
[17] = 1.0M DTPB in phosphate buffer, 30 days storage, 4 C., dark, HA avg 50,300 mg/L
[18] = 1.0M DTPB in phosphate buffer, 30 days storage, 25 C., dark, HA avg 50,300 mg/L
[19] = 1.0M DTPB in phosphate buffer, 30 days storage, 25 C., light, HA avg 50,300 mg/L
[20] = 1.0M DTPB in phosphate buffer, 30 days storage, −20 C., dark, HA avg 50,300 mg/L
[21] = 2M DTPB in phosphate buffer, 30 days storage, 4 C., dark, HA avg 50,300 mg/L
[22] = 2M DTPB in phosphate buffer, 30 days storage, 25 C., dark, HA avg 50,300 mg/L
[23] = 2M DTPB in phosphate buffer, 30 days storage, 25 C., light, HA avg 50,300 mg/L
[24] = 2M DTPB in phosphate buffer, 30 days storage, −20 C., dark, HA avg 50,300 mg/L
[25] = aqueous solutions, read-out: solubility in aqueous solutions (molar solubility)
[26] = starred values of column PIR, M (footnote of Table 6), read-out: maximum molar solubility
[27] = 1M BRT in phosphate buffer, 19 days storage, 4 C., dark, HA avg 10,200 mg/L
[28] = 1M BRT in phosphate buffer, 19 days storage, 25 C., dark, HA avg 10,200 mg/L
[29] = 1M BRT in phosphate buffer, 19 days storage, 25 C., light, HA avg 10,200 mg/L
[30] = 1M BRT in phosphate buffer, 19 days storage, −20 C., dark, HA avg 10,200 mg/L

## CC(=O)C[n+]1ccsc1
[1]
  performance as PIR compound (in words): did not perform well

## 1-thiazole-2-propanone bromide [BAT]
[1]; [4]
  Average Efficiency, ε: 0.51
  Avg Reduction Factor: 3
[1]
  performance as PIR compound (in words): poor performance
[2]; [4]
  Typical dilution decade for PCR: 4
  range of dilutions (dilution decade for PCR): 3-4

## N=C(N)NN [AMG, Aminoguanidine, reference compound]
[1]; [5]
  HA reduction factor: 7
  ε values: 0.83
[1]; [6]
  HA reduction factor: 6
  ε values: 0.81
[1]; [7]
  HA reduction factor: 6
  ε values: 0.80
[1]; [8]
  HA reduction factor: 4
  ε values: 0.65
[1]; 4.0M AMG, 30 days storage
  ε values: less than 1
[1]; [9]
  HA reduction factor: 14
  ε values: 1.15
[1]; [10]
  HA reduction factor: 15
  ε values: 1.16
[1]; [11]
  HA reduction factor: 19
  ε values: 1.13
[1]; [12]
  HA reduction factor: 19
  ε values: 1.28
[1]; 5.5 M AMG, 30 days storage
  ε values: less than 1.3
[1]; AMG 4.0 and 5.5 M, 30 days storage, HA ~10,000 mg/L
  Typical HA reduction factors: less than 20
[1]; PIR 4 M, HAi avg 35,000
  Average Efficiency, ε: 0.77
  Avg Reduction Factor: 6
[1]
  performance as PIR compound (in words): poor performance
[2]; [5]
  Decade of dilution: 2
[2]; [6]
  Decade of dilution: 2
[2]; [7]
  Decade of dilution: 2
[2]; [8]
  Decade of dilution: 2
[2]; [9]
  Decade of dilution: 2
[2]; [10]
  Decade of dilution: 2
[2]; [11]
  Decade of dilution: 2
[2]; [12]
  Decade of dilution: 2
[2]; PIR 4 M, HAi avg 35,000
  Typical dilution decade for PCR: 4
  range of dilutions (dilution decade for PCR): 3-4
[2]; both 4.0 and 5.5 M AMG
  dilution required for successful PCR products: 2 orders of magnitude

## O=C(C[n+]1ccsc1)C[n+]1ccsc1 [DTPB, 1,3-Dithiazole-2-Propanone Dibromide]
[1]; [13]
  HA reduction factor: 5
  ε values: 0.70
[1]; [14]
  HA reduction factor: 6
  ε values: 0.76
[1]; [15]
  HA reduction factor: 6
  ε values: 0.75
[1]; [16]
  HA reduction factor: 7
  ε values: 0.87
[1]; [17]
  HA reduction factor: 143
  ε values: 2.16
[1]; [18]
  HA reduction factor: 160
  ε values: 2.20
[1]; [19]
  HA reduction factor: 194
  ε values: 2.29
[1]; [20]
  HA reduction factor: 114
  ε values: 2.06
[1]; [21]
  HA reduction factor: 64
  ε values: 1.81
[1]; [22]
  HA reduction factor: 99
  ε values: 1.99
[1]; [23]
  HA reduction factor: 107
  ε values: 2.03
[1]; [24]
  HA reduction factor: 50
  ε values: 1.70
[1]; [4]
  Average Efficiency, ε: 2.18
  Avg Reduction Factor: 153
[1]
  performance as PIR compound (in words): poor performance
[2]; [13]
  Decade of dilution: 2
[2]; [14]
  Decade of dilution: 2
[2]; [15]
  Decade of dilution: 2
[2]; [16]
  Decade of dilution: 2
[2]; [17]
  Decade of dilution: 1
[2]; [18]
  Decade of dilution: 1
[2]; [19]
  Decade of dilution: 1
[2]; [20]
  Decade of dilution: 1
[2]; [21]
  Decade of dilution: 1
[2]; [22]
  Decade of dilution: 1
[2]; [23]
  Decade of dilution: 1
[2]; [24]
  Decade of dilution: 1
[2]; [4]
  Typical dilution decade for PCR: 2
  range of dilutions (dilution decade for PCR): 1-2

## O=C(C[n+]1ccsc1)c1ccccc1 [PTB, Phenacyl Thiazolium Bromide, reference compound]
[3]; [25]
  solubility: < 1000 mM
[3]; [26]
  solubility: 1000 mM

## Nc1ccc(C(=O)C[n+]2ccsc2)cc1.[Br-] [PTB-A, 4-Amine-Phenacyl Thiazolium Bromide]
[1]
  performance as PIR compound (in words): did not perform well; also recorded: poor performance

## Cc1ncc(C[n+]2csc(CCO[P@](=O)(O)OP(=O)(O)O)c2C)c(N)n1 [THI-PP, thiamine pyrophosphate]
[1]; PIR 0.3 M, HAi avg 14,000
  Average Efficiency, ε: 2.57
  Avg Reduction Factor: 384
[1]
  performance as PIR compound (in words): did not perform well; also recorded: poor performance
[2]; PIR 0.3 M, HAi avg 14,000
  Typical dilution decade for PCR: 0
  range of dilutions (dilution decade for PCR): 0-3
[3]; [25]
  solubility: 300 mM
[3]; [26]
  solubility: 300 mM
[3]; aqueous solutions
  solubility in aqueous solutions (molar solubility): ~300 mM

## Bromothiazole [BRT]
[1]; [27]
  ε values: 1.99
[1]; [28]
  ε values: 2.45
[1]; [29]
  ε values: 2.18
[1]; [30]
  ε values: 1.36
[1]; 1M BRT stored at room temperature, ambient lighting
  increase of PIR ability (HA reduction factor) on day 19 versus day zero: ~3 factor
[1]; 1M BRT stored at room temperature, kept in the dark
  increase of PIR ability (HA reduction factor) on day 19: greater than 2 factor
[1]; [4]
  Average Efficiency, ε: 2.21
  Avg Reduction Factor: 199
[2]; [27]
  Decade of dilution: 0
[2]; [28]
  Decade of dilution: 0
[2]; [29]
  Decade of dilution: 0
[2]; [30]
  Decade of dilution: 0
[2]; [4]
  Typical dilution decade for PCR: 0
  range of dilutions (dilution decade for PCR): 0-3
[2]; aqueous HA samples seeded with E. coli DNA
  PCR products imaged after gel electrophoresis (band intensity): weak
